Test results from article PMC6522981, “Structure-based design generated novel hydroxamic acid based preferential HDAC6 lead inhibitor with on-target cytotoxic activity against primary choroid plexus carcinoma” (Journal of Enzyme Inhibition and Medicinal Chemistry, 2019).
Where two headings read alike, the source gives them in different places.

What was measured:
human HDAC8 = biological target: T1, human HDAC8 (Homo sapiens, UniProt Q9BY41); test: HDAC8 inhibitor enzymatic assay, % inhibition at fixed concentration; format: biochemical; details: read-out: %inhibition of HDACs at 10µM of test compound HDAC8; 10 µM compound
T1 construct: purchased BPS Bioscience 50008
T1 sequence (Q9BY41 1-377): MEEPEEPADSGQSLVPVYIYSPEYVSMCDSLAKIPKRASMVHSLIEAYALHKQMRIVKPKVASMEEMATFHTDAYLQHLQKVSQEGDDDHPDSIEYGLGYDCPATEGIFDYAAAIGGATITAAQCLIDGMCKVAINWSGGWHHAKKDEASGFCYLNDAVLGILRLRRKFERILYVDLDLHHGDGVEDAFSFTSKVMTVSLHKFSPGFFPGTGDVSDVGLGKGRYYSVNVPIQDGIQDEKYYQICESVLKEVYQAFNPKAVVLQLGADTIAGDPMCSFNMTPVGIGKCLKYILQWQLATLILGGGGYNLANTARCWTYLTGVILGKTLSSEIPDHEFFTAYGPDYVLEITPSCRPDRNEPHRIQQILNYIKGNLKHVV

human HDAC11 = biological target: T2, human HDAC11 (Homo sapiens, UniProt Q96DB2); test: HDAC11 inhibitor enzymatic assay, % inhibition at fixed concentration; details: read-out: %inhibition of HDACs at 10µM of test compound HDAC11
T2 sequence (Q96DB2 1-347): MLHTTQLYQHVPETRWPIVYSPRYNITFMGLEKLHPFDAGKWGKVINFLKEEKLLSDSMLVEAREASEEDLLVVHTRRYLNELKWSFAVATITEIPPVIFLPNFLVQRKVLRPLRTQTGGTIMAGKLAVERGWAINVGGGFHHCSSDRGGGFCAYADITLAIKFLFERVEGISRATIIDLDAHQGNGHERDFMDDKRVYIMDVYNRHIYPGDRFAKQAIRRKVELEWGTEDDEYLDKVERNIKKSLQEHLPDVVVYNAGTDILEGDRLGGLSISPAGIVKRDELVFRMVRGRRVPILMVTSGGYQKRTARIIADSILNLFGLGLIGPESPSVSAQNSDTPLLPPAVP

[1] = test system: CCHE-45 cells (primary choroid plexus carcinoma); test: Cytotoxicity assay using xCELLigence system; format: cell-based; details: for IC50: xCELLigence, 96 h exposure, mean of three replicates, read-out: CCHE-45 IC50 (µM)±SEM
Method: Established primary Choroid plexus carcinoma (CCHE-45) were cultured as previously described, in RPMI-1640 (Lonza, BE-12-702F) supplemented with 10% Fetal Bovine Serum (FBS, Gibco, 12483–020) and 100 U/ml penicillin and 100 µg/ml streptomycin (Lonza, DE17-602F). Cells were maintained at 37 °C in a 5% CO2 humidified atmosphere.
Cytotoxicity assay by the xCELLigence system was performed using RTCA xCELLigence DP system (ACEA Biosciences, Inc., San Diego, CA, USA) as per manufacturer’s instructions https://www.aceabio.com/products/rtca-dp/, https://www.aceabio.com/products/rtca-sp[65–68]. In brief, after setting up the instruments and blanking the wells with media, CCHE-45 cells were seeded into the 96 well E-plate (ACEA Biosciences) with a density of 20,000 cells/well. Attachment and growth of the cells were monitored every 1 h. Approximately 24 h after seeding, when the cells were in the log growth phase, the cells were exposed to a range of test compound 10a concentrations (3.125, 6.25, 12.5, 25, 50, 100, 200, 400) µM for 96 h. Controls received either medium alone, or medium + DMSO with a final concentration below of 0.5%. For each concentration, duplicates were tested. Experiments were conducted in three biological repeats. Results were analyzed using the RTCA software (Version 2.0). Data was exported and average IC50 value was analyzed.
• Based on previous pilot experiment, the highest SK114 conc. (100µM)
72hrs, thus this experiment was performed with higher concentration
• Cells were incubated with the drug for 96hrs
• Experiment was done in technical duplicates

human HDAC3/NCOR2 = human HDAC3/NCOR2 (Homo sapiens, UniProt O15379); test: HDAC3/NCOR2 inhibitor enzymatic assay, % inhibition at fixed concentration; details: read-out: %inhibition of HDACs at 10µM of test compound HDAC3
human HDAC1 = biological target: T3, human HDAC1 (Homo sapiens, UniProt Q13547); test: HDAC1 inhibitor enzymatic assay, % inhibition at fixed concentration (BPS Bioscience, fluorogenic); format: biochemical; details: read-out: %inhibition of HDACs at 10µM of test compound HDAC1; 10 µM compound; mean of two replicates
T3 construct: purchased BPS Bioscience 50051

human HDAC7 = biological target: T4, human HDAC7 (Homo sapiens, UniProt Q8WUI4); test: HDAC7 inhibitor enzymatic assay, % inhibition at fixed concentration; details: read-out: %inhibition of HDACs at 10µM of test compound HDAC7
T4 sequence (Q8WUI4 479-952 limits assumed): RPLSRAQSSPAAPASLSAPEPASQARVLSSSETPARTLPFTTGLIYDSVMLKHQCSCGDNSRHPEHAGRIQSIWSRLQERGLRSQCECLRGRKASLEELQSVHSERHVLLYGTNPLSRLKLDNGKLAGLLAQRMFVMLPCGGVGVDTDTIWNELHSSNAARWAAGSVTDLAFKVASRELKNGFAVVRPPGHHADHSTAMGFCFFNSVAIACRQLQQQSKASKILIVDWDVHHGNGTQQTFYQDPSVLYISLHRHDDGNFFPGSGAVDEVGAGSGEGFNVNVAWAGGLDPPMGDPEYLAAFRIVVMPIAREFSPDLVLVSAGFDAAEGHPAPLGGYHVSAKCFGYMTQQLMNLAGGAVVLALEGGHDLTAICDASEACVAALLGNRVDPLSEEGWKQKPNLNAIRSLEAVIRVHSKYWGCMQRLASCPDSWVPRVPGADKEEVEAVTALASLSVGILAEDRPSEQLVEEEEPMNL

T3 sequence (Q13547 whole entry): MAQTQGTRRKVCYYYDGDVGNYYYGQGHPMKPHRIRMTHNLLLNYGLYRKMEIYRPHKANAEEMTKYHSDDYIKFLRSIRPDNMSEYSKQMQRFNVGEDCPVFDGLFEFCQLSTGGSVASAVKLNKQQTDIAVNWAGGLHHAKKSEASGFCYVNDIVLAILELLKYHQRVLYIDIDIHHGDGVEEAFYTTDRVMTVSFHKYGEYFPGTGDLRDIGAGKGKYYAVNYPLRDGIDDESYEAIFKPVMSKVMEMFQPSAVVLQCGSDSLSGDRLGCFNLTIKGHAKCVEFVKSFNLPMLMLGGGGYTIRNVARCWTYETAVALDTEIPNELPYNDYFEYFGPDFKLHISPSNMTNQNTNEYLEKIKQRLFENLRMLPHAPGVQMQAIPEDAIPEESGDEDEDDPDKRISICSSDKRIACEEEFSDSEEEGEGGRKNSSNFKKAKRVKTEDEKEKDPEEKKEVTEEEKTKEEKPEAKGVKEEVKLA
human HDAC3/NCOR2, sequence (O15379 whole entry): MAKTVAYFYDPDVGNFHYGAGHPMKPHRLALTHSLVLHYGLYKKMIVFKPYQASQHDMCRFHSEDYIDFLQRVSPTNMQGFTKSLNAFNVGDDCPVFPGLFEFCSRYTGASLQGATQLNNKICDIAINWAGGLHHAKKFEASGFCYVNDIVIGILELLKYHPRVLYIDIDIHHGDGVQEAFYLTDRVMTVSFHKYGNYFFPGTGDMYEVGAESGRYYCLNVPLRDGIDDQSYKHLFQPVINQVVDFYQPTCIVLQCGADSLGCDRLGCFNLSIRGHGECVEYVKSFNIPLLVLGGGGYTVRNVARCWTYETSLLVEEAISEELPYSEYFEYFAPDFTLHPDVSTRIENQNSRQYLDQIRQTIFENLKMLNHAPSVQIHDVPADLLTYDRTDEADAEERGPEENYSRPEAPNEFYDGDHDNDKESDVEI
human HDAC3/NCOR2, sequence (Q9Y618 395-489 partner limits assumed): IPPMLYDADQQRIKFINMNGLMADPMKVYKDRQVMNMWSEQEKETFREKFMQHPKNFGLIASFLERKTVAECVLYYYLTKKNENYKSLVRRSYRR

inhibition at 10 µM (human HDAC8): 56%
inhibition at 10 µM (human HDAC11): 6%
inhibition at 10 µM (human HDAC3/NCOR2): 37%
inhibition at 10 µM (human HDAC1): 36%
inhibition at 10 µM (human HDAC7): 2%
Structure (SMILES): O=C(CCCSc1nc2ccccc2n1Cc1ccccc1)NO [Compound 10a, 4-((1-benzyl-1H-benzo[d]imidazol-2-yl)thio)-N-hydroxybutanamide]
effect on cell index of CCHE-45, pilot experiment ([1]; 100 µM (highest conc.), 72 hrs): lowered cell index and induced cell death
effect on cell index (CI) of CCHE-45 ([1]; 100 µM, after 24 h from addition of the drug): reduced CI to half the maximum CI
effect on cell index (CI) of CCHE-45 ([1]; 400 µM or 200 µM, monitoring for 96 h): quick and dramatic reduction in cell index
IC50 ([1]; 96 h): 113 µM
IC50 [1]: 113 ± 11.1 µM
